What was measured:
[1] = system: human non-small cell lung cancer NCI-H1975; test: Biological Example 8: in vivo xenograft model of human non-small cell lung cancer NCI-H1975; design: species or system Balb/c-nu nude mice; settings: nude mice
[2] = system: human ovarian cancer SK-OV-3; test: Biological Example 6: in vivo xenograft model of human ovarian cancer SK-OV-3; design: species or system Balb/c-nu nude mice; settings: SK-OV-3 xenograft, nude mice, 0.8 mg/kg i.v. qw×3
[3] = system: BxPC-3 (human pancreatic cancer in situ); test: In vitro inhibitory effect against human tumor cells (MTT or SRB); assay type: cell-based; settings: BXPC-3, 72 h, BxPC-3, test method printed MTT (head: SRB), 3 days
Method: (§1) Cells were cultured with 5% CO2 at 37°C and saturated humidity until they reached a logarithmic growth phase (usually adherent cells were nearly fully confluent). After removing adherent cells by trypsin/EDTA digestion, the cells were collected for subsequent experiments.
(§2) The cells were inoculated into a 96-well cell culture plate (hereinafter referred to as the 96-well plate) based on the cell count shown in Table 2, cultured overnight to achieve cell adherence, and then, after different concentrations of the test compound were added, further cultured for a total of 3 days. Finally, the total cell protein in the assay wells was assayed by SRB, or the cell viability was assessed by MTT:
(§3) 2.1 Assaying total cell protein by SRB: the modification is based on the method in the literature (V. Vichai and K. Kirtikara. Sulforhodamine B colorimetric assay for cytotoxicity screening. Nature Protocols. 2006, 1: 1112-1116). Specific method: the culture medium was pipetted out from the wells, the cells were fixed with 10% trichloroacetic acid for more than 1 h, and trichloroacetic acid was removed; the cells were washed with H2O, and stained with 0.4% SRB for 15-30 min; after excess SRB was removed, the cells were washed with 1% acetic acid; 100 µl of 10 mM tris(trihydroxymethylaminomethane) was added to dissolve the protein-bound SRB, followed by assay at a wavelength of 570 nm.
(§4) 2.2 Assaying cell viability by MTT: the modification is based on the method in the literature (J. Carmichael, W. DeGraff, A. Gazdar et al., Evaluation of a tetrazolium-based semiautomated colorimetric assay: assessment of chemosensitivity testing. Cancer Research. 1987, 47: 936-942). Specific method: For well-adherent cells: the medium was pipetted out, 100 µL of a basal medium containing 0.5 mg/mL MTT (medium free of fetal bovine serum (FBS) and other additives) was added to each well, and culture was continued for additional 3 h. The MTT-containing basal medium was pipetted out, and 100 µL of DMSO was added to each well to dissolve formazan, followed by assay at a wavelength of 490 nm.
(§5) For poorly-adherent cells: MTT solution was directly added to a concentration of 0.5 mg/mL, culture was continued for additional 3 h, and an equal volume of triple solvent was added to the system to dissolve formazan, followed by assay at a wavelength of 570 nm.
(§6) 2.3: 1-2 mg of β-glucuronidase was weighed, and dissolved in PBS to prepare 2 mg/mL stock solution. Prior to use, the stock solution was diluted with a complete medium to prepare 12.5 µg/mL enzyme working solution. For assay wells requiring the enzyme, 80 µL of the enzyme working solution was added, with the β-glucuronidase at a concentration of 1 µg/well; and for assay wells not requiring the enzyme, 80 µL of the complete medium was added.
(§7) 1-3 mg of the test compound was weighed, and dissolved in DMSO to prepare 20 mM stock solution. The stock solution was diluted in a 3-fold gradient with DMSO, then diluted 100-fold with RPMI1640 basal medium to obtain 10× working solutions, with a total of 8 concentrations. 20 µL of the 10× working solutions were add to the assay wells, with the final volume of each well of 200 µL, and with the DMSO at a concentration of 0.1%.
(§8) 2.4 Calculation of inhibitory activity of compound: the experiment includes a compound test group, a compound-free positive solvent control group (PC), and a negative solvent control group (NC) without cells and the compound. Inhibition rate = [1−(testvalue−NCmean)/(PCmean−NCmean)] × 100% [formula]
(§9) The mean and SD of the inhibition rate were obtained from replicate assay wells. A curve was plotted with the compound concentrations distributed in a logarithmic form as the abscissa and with the mean inhibition rates as the ordinate, and was fitted with a 4-parameter logistic equation. The compound concentration corresponding to 50% inhibition rate on the curve is the IC50 value. Table 2: Culture medium formulation and cell inoculation concentration for human tumor cell lines

[4] = system: SK-OV-3 (human ovarian cancer); test: In vitro inhibitory effect against human tumor cells (MTT); assay type: cell-based; settings: SK-OV-3, 72 h, SK-OV-3, MTT, 3 days
Method: as §1, §2, §4, §5, §6, §7, §8, §9

[5] = system: HCT116 (human colorectal cancer); test: as above; assay type: cell-based; settings: HCT-116, 72 h, 3 days
Method: as §1, §2, §4, §5, §6, §7, §8, §9

[6] = system: NCI-N87 (human gastric cancer cell); test: as above; assay type: cell-based; settings: NCI-N87, 72 h, 3 days
Method: as §1, §2, §4, §5, §6, §7, §8, §9

[7] = system: NCI-H1975 (human non-small cell lung cancer); test: as above; assay type: cell-based; settings: NCI-H1975, 72 h, 3 days
Method: as §1, §2, §4, §5, §6, §7, §8, §9

[8] = system: Fadu (human pharyngeal squamous cell carcinoma); test: as above; assay type: cell-based; settings: 72 h, 3 days
Method: as §1, §2, §4, §5, §6, §7, §8, §9

[9] = system: HepG2 (human liver cancer cell); test: In vitro inhibitory effect against human tumor cells (SRB); assay type: cell-based; settings: HepG2, 72 h, 3 days
Method: as §1, §2, §3, §6, §7, §8, §9

[10] = system: A375 (human malignant melanoma); test: as above; assay type: cell-based; settings: A-375, 72 h, 3 days
Method: as §1, §2, §3, §6, §7, §8, §9

[11] = system: 22RV1 (human prostate cancer); test: as above; assay type: cell-based; settings: 22Rv1, 72 h, 22RV1, SRB, 3 days
Method: as §1, §2, §3, §6, §7, §8, §9

[12] = system: MDA-MB-468 (human triple-negative breast cancer); test: as above; assay type: cell-based; settings: MDA-MB-468, 72 h, MDA-MB-468, SRB, 3 days
Method: as §1, §2, §3, §6, §7, §8, §9

[13] = system: SW620 (human colorectal cancer); test: as above; assay type: cell-based; settings: SW-620, 72 h, 3 days
Method: as §1, §2, §3, §6, §7, §8, §9

[14] = system: HCC827 (human non-small cell lung cancer); test: as above; assay type: cell-based; settings: HCC827, 72 h, 3 days
Method: as §1, §2, §3, §6, §7, §8, §9

[15] = With addition of βGU (1 µg/well)

Compound: CC[C@H](C)[C@@H]([C@@H](CC(=O)N1CCC[C@H]1[C@H](OC)[C@@H](C)C(=O)N[C@H](C)[C@@H](O)c1ccccc1)OC)N(C)C(=O)[C@@H](NC(=O)[C@H](C(C)C)[N+](C)(C)Cc1ccc(O[C@@H]2O[C@H](C(=O)[O-])[C@@H](O)[C@H](O)[C@H]2O)cc1OCc1cn(CCCCCC(=O)Nc2ccc(-c3ccc(/N=N/c4ccc5c(S(=O)(=O)[O-])cc(S(=O)(=O)[O-])c(N)c5c4O)c(C)c3)cc2C)nn1)C(C)C.[Na+].[Na+] [Example compound 4]
- Final body weight change (%) ([1]; 0.8 mg/kg i.v. qw×3): 4.9%
- Maximum body weight change (%) ([1]; 0.8 mg/kg i.v. qw×3): 4.9, d24%
- Relative volume RTV (x±S.D.) ([1]; 0.8 mg/kg i.v. qw×3): 0.33±0.17
- T/C (%) ([1]; 0.8 mg/kg i.v. qw×3): 2.7%
- Tumor inhibition rate (%) ([1]; 0.8 mg/kg i.v. qw×3): 97.3%
- Tumor weight (g, x±S.D.) ([1]; 0.8 mg/kg i.v. qw×3): 0.072 ± 0.046 g
- Body weight (g, x±S.D.) End 24d ([1]; 0.8 mg/kg i.v. qw×3, End 24d): 26.0 ± 1.1 g
- Body weight (g, x±S.D.) Start ([1]; 0.8 mg/kg i.v. qw×3, Start): 24.8 ± 0.8 g
- Final body weight change (%) [2]: 4.2%
- Maximum body weight change (%) [2]: 4.8, d17%
- Relative volume RTV (x±S.D.) [2]: 0.79±0.79
- T/C (%) [2]: 7.6%
- Tumor inhibition rate (%) [2]: 96.0%
- Tumor weight (g, x±S.D.) [2]: 0.055 ± 0.077 g
- Body weight (g, x±S.D.) End ([2]; End): 24.2 ± 0.9 g
- Body weight (g, x±S.D.) Start ([2]; Start): 23.3 ± 0.8 g
- IC50 [3, 15]: 1.9 nM
- IC50 ([3]; βGU-free): 44 nM
- IC50 [4, 15]: 5.1 nM
- IC50 ([4]; βGU-free): 215 nM
- IC50 [5, 15]: 6.6 nM
- IC50 ([5]; βGU-free): 139 nM
- IC50 [6, 15]: 2.3 nM
- IC50 ([6]; βGU-free): 58 nM
- IC50 [7, 15]: 5.5 nM
- IC50 ([7]; βGU-free): 86 nM
- IC50 [8, 15]: 1.7 nM
- IC50 ([8]; βGU-free): 21 nM
- IC50 [9, 15]: 4.7 nM
- IC50 ([9]; βGU-free): 72 nM
- IC50 [10, 15]: 5 nM
- IC50 ([10]; βGU-free): 66 nM
- IC50 [11, 15]: 7 nM
- IC50 ([11]; βGU-free): 115 nM
- IC50 [12, 15]: 0.96 nM
- IC50 ([12]; βGU-free): 8.8 nM
- IC50 [13, 15]: 3.4 nM
- IC50 ([13]; βGU-free): 67 nM
- IC50 [14, 15]: 3.4 nM
- IC50 ([14]; βGU-free): 54 nM

Source: patent EP4818187A1, “COMPOUND AND USE THEREOF” (Ganzhou Hemay Pharmaceutical, Co., Ltd, priority 2023, dated 2025)
